Measured values as given in patent publication US20250326772A1, “MRGPRX2 ANTAGONISTS, PHARMACEUTICAL COMPOSITION INCLUDING MRGPRX2 ANTAGONIST, AND METHOD OF TREATING MRGPRX2-MEDIATED DISEASE OR DISORDER” (KYORIN PHARMACEUTICAL CO., LTD., priority 2024, published 2025).

Biological target: T1, MRGPRX2 (Homo sapiens, UniProt Q96LB1)
T1 sequence (Q96LB1 1-330): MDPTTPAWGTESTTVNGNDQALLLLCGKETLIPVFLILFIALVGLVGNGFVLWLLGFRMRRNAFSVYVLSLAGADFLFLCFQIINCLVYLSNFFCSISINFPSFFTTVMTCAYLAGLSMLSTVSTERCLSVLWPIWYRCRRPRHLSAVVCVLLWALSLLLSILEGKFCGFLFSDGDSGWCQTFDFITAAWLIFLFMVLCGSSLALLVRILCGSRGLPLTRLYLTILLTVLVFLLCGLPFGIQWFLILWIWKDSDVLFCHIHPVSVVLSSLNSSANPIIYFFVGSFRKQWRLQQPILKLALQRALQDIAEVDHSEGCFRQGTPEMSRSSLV
Assay: MRGPRX2 reporter cell assay (NFAT-RE luciferase, Substance P stimulation)
Assay type: cell-based
Conditions: U2OS cells stably transfected with MRGPRX2 and NFAT-RE luciferase reporter; Substance P at EC80
Method: MRGPRX2 Reporter Cell Assays U2OS cells (ATCC, Manassas, VA) were stably transfected with MRGPRX2 expression clones (GeneCopoeia, Rockville, MD) and the pGL4.30 [luc2P/NFAT-RE/Hygro] reporter plasmid (Promega, Madison, WI). Clonal cells were maintained in Growth Media (McCoy's 5A, 10% FBS, 495 μg/ml hygromycin, 2 μg/ml puromycin, 100 units/ml penicillin, and 100 ug/ml streptomycin). The day before assay, cells were plated to white 384-well microplates at 3000 (MRGPRX2) cells/well in 10 ul Assay Media (McCoy's 5A, 2% charcoal dextran stripped FBS, 100 units/ml penicillin, and 100 ug/ml streptomycin) (Gibco, Thermo Fisher) and allowed to adhere overnight. The following day, serially diluted compound stocks were added directly to the cells (final DMSO concentration of 0.5%) and pre-incubated for 30 minutes at 37° C., 5% CO2. The final concentration of Substance P (Tocris, Minneapolis, MN, or PEPTIDE INSTITUTE, Osaka, Japan) corresponding to EC80 was added to stimulate the (MRGPRX2) cells. Cells were returned to the incubator for 6 hrs, after which 5 ul of ONE-GLO substrate (Promega) was added. Luminescence was read within 15 minutes (BioTek, Winooski, VT or infinite M1000Pro, Tecan Japan, Kanagawa, Japan). Percent inhibition for each test compound was calculated using the formula: […] where: • A=the luminescence count of the “test compound” well • B=the median luminescence count of the “Vehicle (0.5% DMSO)” wells • C═the median luminescence count of the “Vehicle (0.5% DMSO)+5 uM of substance P” wells The mean percent inhibition of each concentration of “test compound” was used to generate dose-response curves. IC50 values were calculated using a four-parameter logistic fit to the data using GraphPad Prism software. • +++: […]

| SMILES | IC50 |
| --- | --- |
| COC(=O)N[C@@H]1COc2c(-c3[nH]c4ncccc4c3-c3cn(C)nc3C#N)c(C(F)F)nn2C1 [EX. 517] | 0.0032 µM |

Same assay, conditions: U2OS cells stably transfected with MRGPRX2 and NFAT-RE luciferase reporter; Substance P at EC80; class symbols

| SMILES | IC50 |
| --- | --- |
| Cc1ccnc2[nH]c(-c3c[nH]nc3C(F)(F)F)c(-c3ccccc3C#N)c12 [EX. 78] | < 0.01 µM |
| N#Cc1nccnc1-c1c(-c2c(C(F)F)nn3c2OCCC3)[nH]c2ncccc12 [EX. 409] | 0.1 to 1 µM |
| N#Cc1ccccc1-c1c(-c2c[nH]nc2C(F)F)[nH]c2ncccc12 [EX. 71] | < 0.01 µM |
| Cc1cc(-c2c(-c3c(C4CC4)nn4c3OC[C@@H](NS(C)(=O)=O)C4)[nH]c3ncccc23)c(C#N)s1 [EX. 457] | < 0.01 µM |
| Cc1cc(-c2c(-c3c(C)nn4c3OC[C@@H](O)C4)[nH]c3ncccc23)c(C#N)s1 [EX. 459] | < 0.01 µM |
| N#Cc1ccccc1-c1c(-c2c[nH]nc2C(F)(F)F)[nH]c2ncccc12 [EX. 94] | < 0.01 µM |
| COc1ncc(F)cc1-c1c(-c2c(C(F)F)nn3c2OCCC3)[nH]c2ncccc12 [EX. 431] | < 0.01 µM |
| [2H]c1cnc2[nH]c(-c3cn(C)nc3C(F)F)c(-c3cc(OC([2H])([2H])[2H])ccc3C#N)c2c1 [EX. 89] | < 0.01 µM |
| FC(F)Oc1ncccc1-c1c(-c2c(C(F)F)nn3c2OCCC3)[nH]c2ncccc12 [EX. 410] | < 0.01 µM |
| FC(F)c1nn2c(c1-c1[nH]c3ncccc3c1-c1ccncc1C(F)(F)F)OCCC2 [EX. 412] | 0.01 to 0.1 µM |
| [2H]C([2H])([2H])Oc1ccc(C#N)c(-c2c(-c3c(C)nn4c3OCC[C@H]4C)[nH]c3ncccc23)c1 [EX. 178] | < 0.01 µM |
| [2H]C([2H])([2H])Oc1ccc(C#N)c(-c2c(-c3c(C)nn4c3OCC4)[nH]c3ncccc23)c1 [EX. 238] | < 0.01 µM |
| Cn1cc(-c2c(-c3c(C(F)F)nn4c3OC[C@@H](N)C4)[nH]c3ncccc23)c(OC(F)F)n1 [EX. 543] | < 0.01 µM |
| Cn1cc(-c2[nH]c3ncccc3c2-c2ccccc2C#N)c(C(F)F)n1 [EX. 146] | < 0.01 µM |
| COc1ccc(C#N)c(-c2c(-c3c(C(F)F)nn4c3OC[C@H](N)C4)[nH]c3ncccc23)c1 [EX. 361] | < 0.01 µM |
| Cc1cc(-c2c(-c3cn(C)nc3C(F)F)[nH]c3ncccc23)c(C#N)s1 [EX. 287] | < 0.01 µM |
| COc1ccc(F)cc1-c1[nH]c2nccc(F)c2c1-c1ccccc1C#N [EX. 27] | < 0.01 µM |
| COc1ncccc1-c1c(-c2c(C(F)F)nn3c2OC[C@@H](O)C3)[nH]c2ncccc12 [EX. 462] | < 0.01 µM |
| [2H]C([2H])([2H])Oc1ccc(C#N)c(-c2c(-c3c(C)nn4c3OCC(O)C4)[nH]c3ncccc23)c1 (stereo not drawn) [EX. 199] | < 0.01 µM |
| FC(F)Oc1nnccc1-c1c(-c2c(C(F)F)nn3c2OCCC3)[nH]c2ncccc12 [EX. 388, 3-(3-(3-(difluoromethoxy)pyridazin-4-yl)-1H-pyrrolo[2,3-b]pyridin-2-yl)-2-(difluoromethyl)-6,7-dihydro-5H-pyrazolo[5,1-b] [1,3]oxazine] | 0.01 to 0.1 µM |
| N#Cc1ccccc1-c1c(-c2c[nH]nc2C(F)(F)F)[nH]c2nccc(F)c12 [EX. 77] | < 0.01 µM |
| COc1ccc(C#N)c(-c2c(-c3c(C(F)F)nn4c3OCC4)[nH]c3ncccc23)c1 [EX. 243] | < 0.01 µM |
| Cn1cc(-c2c(-c3c(C(F)F)nn4c3OC[C@@H](NC(=O)C3(C(N)=O)CC3)C4)[nH]c3ncccc23)c(OC(F)F)n1 [EX. 585] | < 0.01 µM |
| COc1ccc(C#N)c(-c2c(-c3c(C(F)F)nn4c3OCC(NC(C)=O)C4)[nH]c3ncccc23)c1 (stereo not drawn) [EX. 358] | < 0.01 µM |
| CN(C)S(=O)(=O)N[C@@H]1COc2c(-c3[nH]c4ncccc4c3-c3cn(C)nc3OC(F)F)c(C(F)F)nn2C1 [EX. 576] | < 0.01 µM |
| [2H]C([2H])([2H])Oc1ccc(C#N)c(-c2c(-c3c(C)nn4c3OCC(O)C4)[nH]c3ncccc23)c1 (stereo not drawn) [EX. 367] | < 0.01 µM |
| Cc1cc(-c2c(-c3c(C(F)F)nn4c3OC[C@@H](O)C4)[nH]c3ncccc23)c(C#N)s1 [EX. 458] | < 0.01 µM |

| SMILES | IC50 |
| --- | --- |
| FC(F)Oc1ccccc1-c1c(-c2c(C(F)F)nn3c2OC[C@@H](F)C3)[nH]c2ncccc12 [EX. 444] | < 0.01 µM |
| Cc1ccc(C#N)c(-c2c(-c3cn(C)nc3C(F)F)[nH]c3ncccc23)c1 [EX. 99] | < 0.01 µM |
| Cn1cc(-c2c(-c3cn(C)nc3C(F)F)[nH]c3ncccc23)c(OC(F)F)n1 [EX. 291] | 0.01 to 0.1 µM |
| COc1ccc(C#N)c(-c2c(-c3c[nH]nc3C(F)F)[nH]c3ncccc23)c1 [EX. 96] | < 0.01 µM |
| Cn1cc(-c2c(-c3c(C(F)F)nn4c3OC[C@@H](NC(=O)OCC(N)=O)C4)[nH]c3ncccc23)c(OC(F)F)n1 [EX. 584] | < 0.01 µM |
| N#Cc1cccnc1-c1c(-c2c(C(F)F)nn3c2OCCC3)[nH]c2ncccc12 [EX. 413] | 0.1 to 1 µM |
| CNC(=O)O[C@@H]1COc2c(-c3[nH]c4ncccc4c3-c3cn(C)nc3OC(F)F)c(C(F)F)nn2C1 [EX. 540] | < 0.01 µM |
| Cn1cc(-c2c(-c3c(C4CC4)nn4c3OC[C@@H](O)C4)[nH]c3ncccc23)c(OC(F)F)n1 [EX. 485] | < 0.01 µM |
| Cn1cc(-c2c(-c3c(C(F)F)nn4c3OC[C@@H](NC(=O)[C@H]3C[C@@H]3F)C4)[nH]c3ncccc23)c(OC(F)F)n1 [EX. 550] | < 0.01 µM |
| [2H]C([2H])([2H])Oc1ccc(C#N)c(-c2c(-c3c(C)nn4c3NCC4)[nH]c3ncccc23)c1 [EX. 168] | < 0.01 µM |
| CO[C@]1(C)COc2c(-c3[nH]c4ncccc4c3-c3cc(C)sc3C#N)c(C(F)F)nn2C1 [EX. 486, (S)-3-(2-(2-(difluoromethyl)-6-methoxy-6-methyl-6,7-dihydro-5H-pyrazolo[5,1-b] [1,3]oxazin-3-yl)-1H-pyrrolo[2,3-b]pyridin-3-yl)-5-methylthiophene-2-carbonitrile] | < 0.01 µM |
| C[C@H](O)COC(=O)N[C@@H]1COc2c(-c3[nH]c4ncccc4c3-c3cn(C)nc3OC(F)F)c(C(F)F)nn2C1 [EX. 567] | < 0.01 µM |
| COC(=O)N[C@@H]1COc2c(-c3[nH]c4ncccc4c3-c3cn(C)nc3OC(F)F)c(C3CC3)nn2C1 [EX. 483] | < 0.01 µM |
| COC(=O)N[C@@H]1COc2c(-c3[nH]c4ncccc4c3-c3cn(C)nc3C#N)c(C(F)F)nn2C1 [EX. 517] | < 0.01 µM |
| CCn1cc(-c2c(-c3c(C(F)F)nn4c3OCCC4)[nH]c3ncccc23)c(OC(F)F)n1 [EX. 400, 3-[3-[3-(difluoromethoxy)-1-ethyl-pyrazol-4-yl]-1H-pyrrolo[2,3-b]pyridin-2-yl]-2-(difluoromethyl)-6,7-dihydro-5H-pyrazolo[5,1-b] [1,3]oxazine] | 0.01 to 0.1 µM |
| COC(=O)N[C@@H]1COc2c(-c3[nH]c4ncccc4c3-c3cccnc3OC(F)F)c(C)nn2C1 [EX. 513] | < 0.01 µM |
| Cn1cc(-c2c(-c3c(C(F)F)nn4c3OC[C@@H](NCCO)C4)[nH]c3ncccc23)c(OC(F)F)n1 [EX. 558] | < 0.01 µM |
| Cn1cc(-c2c(-c3c(C(F)F)nn4c3OC[C@@H](NS(=O)(=O)C3(C)CC3)C4)[nH]c3ncccc23)c(OC(F)F)n1 [EX. 574] | < 0.01 µM |
| Cn1cc(-c2c(-c3c(C(F)F)nn4c3OC[C@@H](NC(=O)CC(C)(C)O)C4)[nH]c3ncccc23)c(OC(F)F)n1 [EX. 586, (S)—N-(3-(3-(3-(difluoromethoxy)-1-methyl-1H-pyrazol-4-yl)-1H-pyrrolo[2,3-b]pyridin-2-yl)-2-(difluoromethyl)-6,7-dihydro-5H-pyrazolo[5,1-b] [1,3]oxazin-6-yl)-3-hydroxy-3-methylbutanamide] | < 0.01 µM |
| O[C@@H]1COc2c(-c3[nH]c4ncccc4c3-c3ccncc3OC(F)F)c(C(F)F)nn2C1 [EX. 463] | < 0.01 µM |
| COc1ccc(C#N)c(-c2c(-c3c(C)nn4cccnc34)[nH]c3ncccc23)c1 [EX. 245] | < 0.01 µM |
| CO[C@@H]1COc2c(-c3[nH]c4ncccc4c3-c3cccnc3OC(F)F)c(C)nn2C1 [EX. 497] | < 0.01 µM |
| CN(C)CCO[C@@H]1COc2c(-c3[nH]c4ncccc4c3-c3cn(C)nc3OC(F)F)c(C(F)F)nn2C1 [EX. 538] | < 0.01 µM |
| Cn1cc(-c2c(-c3c(C(F)F)nn4c3OC[C@@H](NC(=O)C3CC3)C4)[nH]c3ncccc23)c(C#N)n1 [EX. 593, (S)—N-(3-(3-(3-cyano-1-methyl-1H-pyrazol-4-yl)-1H-pyrrolo[2,3-b]pyridin-2-yl)-2-(difluoromethyl)-6,7-dihydro-5H-pyrazolo[5,1-b] [1,3]oxazin-6-yl) cyclopropanecarboxamide] | < 0.01 µM |
| CO[C@@H]1COc2c(-c3[nH]c4ncccc4c3-c3cc(C)sc3C#N)c(C(F)F)nn2C1 [EX. 506] | < 0.01 µM |
| Cc1cc(-c2c(-c3c(C(F)F)nn4c3OC[C@@H](F)C4)[nH]c3ncccc23)c(C#N)s1 [EX. 450] | < 0.01 µM |
